From patent US5849322A, “Compositions and methods for buccal delivery of pharmaceutical agents” (Theratech, Inc., priority 1995, dated 1998)
Values joined by “and” are separate entries in the source; they are usually repeats but may differ in a detail not shown here. Equal entries are not always repeated. Where two headings read alike, the source gives them in different places.

What was measured:
[1] = bile salts; cited from earlier work
[2] = intravenous infusion, fasting individuals; cited from earlier work
[3] = Subcutaneous GLP-1 in fasting subjects (study by M. A. Nauck, FIG. 6), regression analysis; assay type: in vivo, human (fasting subjects)
Text: This could be due to changes in bioavailability with dose, changes in clearance with dose, or a combination of both effects.

[4] = Plasma GLP-1(7-36)amide pharmacokinetics after buccal bilayer tablet; assay type: in vivo, human (healthy volunteers)
Text: (§1) This example describes a double-blind, placebo-controlled, crossover comparison with random assignment to treatment sequence. […] Inclusion criteria for the volunteers were normal glucose tolerance, weight within 22<BMI<26, informed consent to participate in the study, and age between 20 and 60 years. Exclusion criteria were impaired glucose tolerance (2-hour glucose tolerance test; OGTT), gastrointestinal symptoms, ongoing medication or illness, acute infection, abnormal laboratory variables (hemoglobin, hematocrit, leucocytes, creatinine, bilirubin, calcium, potassium, sodium, alkaline phosphatase, gamma-GT, SGOT, SGPT, cholesterol, and triglycerides), and blood pressure greater than 185 mmHg systolic and/or 90 mmHg diastolic.
(§2) Subjects were instructed to fast the night before a treatment. At the clinic, the subjects were given either a drug-containing bilayer tablet or placebo. At time 0 the bilayer tablet was applied to the gingiva with the active layer in contact with the tissue of the lip or inside of the cheek, and the subjects were placed in a rest position. The bilayer tablet was removed after 4.5 hours. No meals were allowed until a standard meal was given after 4.5 hours, and snacks were not permitted at any time. The standard meal contained 550 kcal, with 28%, 22%, and 50% of the energy from protein, fat, and carbohydrate, respectively. The test continued until 8 hours after application of the bilayer tablet, and the subjects left the hospital after 9 hours. The subjects were given their medications in the clinic by a nurse and were under observation at all times. Any symptoms or sensations disturbing or impairing the subjects' wellbeing during the experiments was carefully documented. Standard safety variables were determined under fasting conditions before each experiment. Blood glucose was monitored frequently and glucose infusion was available in case of hypoglycemia (<2.5 mmol/L). If any subject were to experience hypoglycemic symptoms, an extra blood glucose determination would be taken for safety reasons A washout period of 1-4 days was allowed between each experiment The study was completed within 6 weeks after enrollment of the first volunteer.
(§3) The peptide content of bilayer tablet samples was also analyzed by HPLC. […] Results were tested for normal distribution. A two-tailed t-test was carried out for normally distributed samples, and a Wilcoxon rank-sum test was used for data that were not normally distributed. All statistical tests used a level of significance of 0.05.
This was done in comparison to published data.
The data summarized in FIG. 5 were analyzed by AUC to provide an estimate of relative bioavailability by buccal administration as compared to subcutaneous administration.

[5] = Buccal bilayer tablet, double-blind placebo-controlled crossover: blood glucose, plasma insulin and glucagon; assay type: in vivo, human (healthy volunteers)
Text: as §1
Subject numbers were allotted to the subjects in the order in which they were enrolled in the study. The number allotted to each subject determined the treatment sequence received. Subjects receiving treatment sequence 1 were treated with drug followed by placebo, and subjects receiving treatment sequence 2 were treated with placebo followed by drug.
as §2, §3

[6] = in vivo; cited from earlier work
[7] = Buccal delivery of salmon calcitonin in dogs; assay type: in vivo, dog (mongrel dogs); design: AUC infinity, buccal / AUC infinity, iv: concentration or dose not given beside the values
Description: (§4) Bilayer tablets prepared according to Examples 13-15 were tested in in vivo experiments to determine their effectiveness in delivering peptide X systemically to dogs. Mongrel dogs each weighing 30-35 kg were conditioned for one month prior to use. The dogs were mildly sedated with acepromazine, but were awake for the duration of each experiment. Tablets were attached to the gingiva with the active layer contacting and in drug transfer relationship to the buccal mucosa of the upper lip. Nylon muzzles were used to prevent the animals from licking the tablets. In this model, normal salivary functions were preserved and no irrigation was required. The saphenous vein was catheterized to permit venous blood sampling. Blood samples were collected into citrate "[…]" tubes and immediately chilled on ice for 15 minutes and then centrifuged for 10 minutes at 3400 rpm. The resultant supernatant plasma was then collected and stored in capped polypropylene tubes at -70° C. until analyzed for peptide X content.
The procedure of Example 16 was followed with the exception that salmon calcitonin was substituted for peptide X, and tablet sizes and numbers were varied in some experiments.

[8] = colon of a baboon, cited from earlier work
[9] = Buccal delivery of insulin in dogs: blood glucose; assay type: in vivo, dog (mongrel dogs); settings: 5 U/kg
Description: as §4
The procedure of Example 16 was followed with insulin-containing tablets prepared according to Example 6. The results shown in FIG. 8 are the average of 4 dogs, each given one 0.375 inch diameter buccal tablet containing 5 U/kg of drug. […] Beginning about 60 minutes after application, the blood glucose levels start to rise again, reaching normal levels about 120 minutes after application.

[10] = buccal bilayer tablet, 400 μg, FIG. 5
[11] = individual subjects 901-908 and mean, buccal, dose 119 nmol
[12] = buccal bilayer tablet, 400 μg, FIG. 3
[13] = buccal bilayer tablet, 400 μg, FIG. 4
[14] = buccal bilayer tablet, 400 μg, fasting, FIG. 2
[15] = average of 4 dogs, one 0.375 inch buccal tablet, FIG. 8

## C[C@H](CCC(=O)O)[C@H]1CC[C@H]2[C@@H]3[C@H](O)C[C@@H]4C[C@H](O)CC[C@]4(C)[C@H]3CC[C@]12C [chenodeoxycholate]
[1]
  Order of effectiveness in enhancing nasal absorption of insulin: deoxycholate≤chenodeoxycholate≤cholate≤ursodeoxychola te

## C[C@H](CCC(=O)O)[C@H]1CC[C@H]2[C@@H]3[C@H](O)C[C@@H]4C[C@H](O)CC[C@]4(C)[C@H]3C[C@H](O)[C@]12C [cholate]
[1]
  Order of effectiveness in enhancing nasal absorption of insulin: deoxycholate≤chenodeoxycholate≤cholate≤ursodeoxychola te

## C[C@H](CCC(=O)O)[C@H]1CC[C@H]2[C@@H]3[C@@H](O)C[C@@H]4C[C@H](O)CC[C@]4(C)[C@H]3CC[C@]12C [ursodeoxychola te]
[1]
  Order of effectiveness in enhancing nasal absorption of insulin: deoxycholate≤chenodeoxycholate≤cholate≤ursodeoxychola te

## GLP-1
[2]
  Clearance: ~15 mL/min/kg
[3]; fasting subjects
  Bioavailability by subcutaneous administration relative to intravenous administration: 38%
[3]; subcutaneous, regression analysis of all the results
  Clearance: about 40 ml/min/kg

## GLP-1(7-36)amide: gastrointestinal hormone processed from the preproglucagon gene; the naturally occurring form in humans
[4]; after standard meal at 4.5 hours
  Plasma GLP-1(7-36)amide level after the meal compared to placebo: approximately the same as that of the placebo group
[4]; buccal bilayer tablet, 400 μg
  Absorption through the buccal mucosa into the bloodstream: rapid absorption through the buccal mucosa into the bloodstream
[4]; [10]
  Start of rise of plasma GLP-1(7-36)amide level: ≤ 5 min
  Time from which plasma GLP-1(7-36)amide tracks the placebo group: about 150 minutes
  Time of peak plasma GLP-1(7-36)amide level: about 30 minutes
  Time until which plasma GLP-1(7-36)amide declines rapidly: about 90 minutes
[4]; [11]
  AUC: 11343 pmol·min/L and 3278 pmol·min/L and 8024 pmol·min/L and 9113 pmol·min/L and 7250 pmol·min/L and 8753 pmol·min/L and 8410 pmol·min/L
  Bioavailability: 10.01% and 2.89% and 7.08% and 6.40% and 7.72% and 7.42%
  Dose (second Dose column): 11.91 nmol and 3.44 nmol and 9.57 nmol and 7.61 nmol and 9.19 nmol and 8.83 nmol
[5]; about 30 minutes, buccal bilayer tablet, 400 μg, FIG. 4
  Plasma glucagon level at its low compared to placebo: significantly lower than the placebo group
[5]; after the low, buccal bilayer tablet, 400 μg, FIG. 4
  Plasma glucagon level at its peak compared to placebo: significantly higher than the placebo group
[5]; [12]
  Start of rise of plasma insulin level: 10 min
  Time of decline of plasma insulin to normal: about 50 minutes
  Time of peak plasma insulin level: about 20 minutes
[5]; [13]
  Time from which plasma glucagon tracks the placebo group: about 150 minutes
  Time of low of plasma glucagon level: about 30 minutes
  Time of peak of plasma glucagon level: 60 to 75 min
[5]; buccal bilayer tablet, 400 μg, fasting
  Blood glucose levels compared to placebo controls: significantly reduced blood glucose levels as compared to placebo controls
[5]; [14]
  Lowest blood glucose level: about 3 mmol/L
  Time by which blood glucose drops below that of the placebo group: ≤ 20 min
  Time of lowest blood glucose level: about 50 minutes
  Time of return of blood glucose to a normal level: about 90 minutes
[5]; drug vs placebo, after standard meal at 4.5 hours
  Blood glucose levels of the two groups after the meal: indistinguishable after the meal
[5]; relative to normal, buccal bilayer tablet, 400 μg, FIG. 3
  Plasma insulin level at 15 minutes after administration: about three time normal
[6]
  Effect on glucose-induced insulin release: potentiates glucose-induced insulin release

## Salmon Calcitonin
[7]; bilayer tablet
  Buccal delivery into the bloodstream: delivered into the bloodstream of a warm-blooded animal by buccal delivery
[7]; individual dogs (Dog ID#), 2 buccal tablets, 1.27 or 0.71 cm^2
  ng Absorbed: 72,958 ng and 16,461 ng and 20,989 ng and 6,535 ng and 23,379 ng and 17,614 ng
[7]; individual dogs (Dog ID#), 2 tablets, first figure of "buc/iv"
  AUC infinity, buccal: 139 and 66 and 84 and 26 and 64 and 38
[7]; individual dogs (Dog ID#), second figure of "buc/iv"
  AUC infinity, iv: 76 and 159 and 106 and 87

## heparin
[8]; with sodium cholate or deoxycholate
  Activity with bile salts in the formulation: significant activity is detected
[8]; without bile salt
  Transmucosal intestinal delivery (partial thromboplastin time prolongation or plasma lipase release): not apparent

## insulin: insulin-containing tablets prepared according to Example 6 (human insulin)
[9]; [15]
  Start of rise of blood glucose: about 60 minutes
  Start of sharp drop of blood glucose: about 15 minutes
  Time of low level of blood glucose: about 40 minutes
  Time of return of blood glucose to normal levels: about 120 minutes
[9]; buccal delivery
  Control of blood glucose levels: effective in controlling blood glucose levels
